Data from patent US6656709B1, “Methods of increasing the production of cobalamins using cob gene expression” (priority 1990, dated 2003).

Key:
[1] = biological target: T1, P. denitrificans NN:DMBI PRT (Sinorhizobium sp, UniProt P29935); assay: Specificity of NN:DMBI PRT for benzimidazole substrates; type: biochemical, Pseudomonas denitrificans; details: NaMN concentration fixed at 2 mM
T1 construct: the amino-terminal methionine is definitely excised in vivo by methionine aminopeptidase; made in house; host or cells: Pseudomonas denitrificans SC510 Rif^r carrying plasmid pXL1490B (cobU and cobV amplified)
T1 sequence (P29935 2-338 limits assumed): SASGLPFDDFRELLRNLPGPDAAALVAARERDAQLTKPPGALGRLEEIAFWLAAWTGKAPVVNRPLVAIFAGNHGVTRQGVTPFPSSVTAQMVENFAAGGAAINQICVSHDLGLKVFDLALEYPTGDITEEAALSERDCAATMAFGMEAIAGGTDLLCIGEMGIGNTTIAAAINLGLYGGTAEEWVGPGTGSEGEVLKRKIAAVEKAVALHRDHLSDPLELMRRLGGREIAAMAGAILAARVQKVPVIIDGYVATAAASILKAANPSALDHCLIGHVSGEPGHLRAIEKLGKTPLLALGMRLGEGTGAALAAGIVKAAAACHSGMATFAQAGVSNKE
Method: a) Assay of Nicotinate-nucleotide:dimethylbenzimidazole phosphoribosyltransferase activity (FIG. 5, reaction 5). This example illustrates the assay of an enzymatic activity directly linked to the pathway of biosynthesis of cobalamins. The enzyme in question is nicotinate-nucleotide:dimethylbenzimidazole phosphoribosyl-transferase (NN:DMBI PRT) (EC 2.4.2.21). The fractions containing NN:DMBI PRT activity (approximately 5 units) are incubated at 30° C. for 8 min in 0.1 M glycine-NaOH buffer pH 9.7 (500 μl) in the presence of 1 mM NaMN (nicotinic acid mononucleotide) and 10 μM DMBI. The reaction is then stopped by heating to 80° C. for 10 min, the reaction mixture is diluted with water (4 volumes) and this solution (100 μl) is injected onto a 15-cm Nucleosil 5-C8 HPLC column eluted with a 0.1 M potassium phosphate pH 2.9/acetonitrile (93:7) mixture at a flow rate of 1 ml/min. The α-ribazole 5′-phosphate is detected and quantified by fluorimetry (excitation: 260 nm; emission >370 nm). The unit of enzymatic activity is defined as the quantity of enzyme necessary for generating 1 nmol of α-ribazole 5′-phosphate per hour under these conditions.
d) Specificity of NN:DBI PRT for DBI. […]

[2] = biological target: T2, precorrin-6x reductase (Sinorhizobium sp, UniProt P21920); assay: Reaction catalysed by precorrin-6x reductase, cofactor dependence; type: biochemical, Pseudomonas denitrificans
T2 construct: the amino-terminal methionine is definitely excised in vivo by methionine aminopeptidase; made in house; host or cells: Pseudomonas denitrificans SC510 Rif^r carrying plasmid pXL253 (8.7-kb EcoRI fragment, cobF to cobM, in pKT230)
Method: The fractions containing precorrin-6x reductase activity (approximately 0.05 unit, U) are incubated at 30° C. for 60 min in 0.1 M Tris-HCl buffer pH 7.7 (250 μl) in the presence of 1 mM EDTA, 500 μM NADPH, 25 μM [methyl-^3H]SAM (80 μCi/μmol), 4 μM precorrin-6x (Thibaut et al., 1990) and partially purified dihydroprecorrin-6x methylase (0.5 U) (see preparation below). The reaction is then stopped by heating to 80° C. for 5 min and, after centrifugation at 5000×g for 5 min, the supernatant is injected onto a DEAE-Sephadex column (containing 200 μl of gel). The column is then washed extensively with the Tris-HCl buffer, and the compounds bound are eluted with 1 M HCl (4 ml). The radio activity in this eluent is counted by liquid scintillation counting. The unit of enzymatic activity is defined as the quantity of enzyme necessary for reducing 1 nmol of precorrin-6x per h under these conditions.
When the purified enzyme (or an active fraction during purification, or even a crude enzyme extract) is incubated under the conditions of the assay of activity, but in the absence of SAM and of dihydroprecorrin-6x methylase, the product of the reaction can then be purified by HPLC in the system described for the purification of precorrin-6x (see Example 6.1.4.d). […]

[3] = biological target: T3, cobalamin-5′-phosphate synthase (Sinorhizobium sp, UniProt P29936); assay: Specificity of cobalamin-5′-phosphate synthase; type: biochemical, Pseudomonas denitrificans; details: partially purified enzyme
T3 construct: made in house; host or cells: Pseudomonas denitrificans SC510 Rif^r carrying plasmid pXL1490B (own cobV gene amplified)
Method: a) Assay of GDP-cobinamide: α-ribazole-5′-phosphate cobinamidephosphotransferase (or cobalamin-5′-phosphate synthase) activity. This example illustrates the assay of an activity directly linked to the pathway of biosynthesis of cobalamines. The enzyme in question is cobalamin-5′-phosphate synthase. The fractions containing the activity (approximately 5 to 10 units) are incubated in darkness at 30° C. in […] buffer pH 9.0 (500 μl) in the presence of 1 mM EDTA, 12.5 mM MgCl2, 50 μM α-ribazole 5′-phosphate and 20 μM GDP-cobinamide [in 5′-deoxy-5′-adenosyl (Ado) or coenzyme form]. After 15 min of incubation, 20 mM potassium cyanide (500 μl) is added and the solution is heated to 80° C. for 10 min. After centrifugation to remove the precipitated matter, the vitamin B12 5′-phosphate present in the supernatant is assayed as described in Example 9. One unit of cobalamin-5′-phosphate synthase is defined as the quantity of enzyme necessary for generating 1 nmol of cobalamine 5′-phosphate per h under the conditions described above.
This experiment illustrates how a P. denitrificans enzymatic activity participating in the pathway of biosynthesis of cobalamines of P. denitrificans can be partially purified. Using the assay described above, the purification of cobalamin 5′-phosphate synthase is carried out. For this purpose, in a typical purification experiment, wet cells (10 g) of strain SC510 Rif^r, into which plasmid pXL1490B has been introduced as described previously, are used. Plasmid pXL1490B is described in FIG. 38: this plasmid corresponds to the 3.85-kb SstI-SstI-BamHI fragment cloned into PKT230. This plasmid carries the P. denitrificans cobU and cobV genes. […] The SC510 Rif^r pXL1490B cells are obtained by culture in PS4 medium supplemented with lividomycin, as described above. […]
c) Specificity of cobalamin-5′-phosphate synthase. […] Intracellular α-ribazole 5′-phosphate and α-ribazole concentrations of 30 and 700 μM, respectively, were measured by HPLC during the production of cobalamins by SC510 Rif^r in PS4 medium under the culture conditions described in Example 6.1.5a).

[4] = biological target: T4, Methanobacterium ivanovii SUMT (Methanobacterium ivanovii, UniProt P29564); assay: Catalytic properties of purified M. ivanovii SUMT; type: biochemical
T4 construct: endogenous in cells; host or cells: Methanobacterium ivanovii DSM2611 (enzyme purified to homogeneity from the natural organism)
T4 sequence (P29564 2-231 limits assumed): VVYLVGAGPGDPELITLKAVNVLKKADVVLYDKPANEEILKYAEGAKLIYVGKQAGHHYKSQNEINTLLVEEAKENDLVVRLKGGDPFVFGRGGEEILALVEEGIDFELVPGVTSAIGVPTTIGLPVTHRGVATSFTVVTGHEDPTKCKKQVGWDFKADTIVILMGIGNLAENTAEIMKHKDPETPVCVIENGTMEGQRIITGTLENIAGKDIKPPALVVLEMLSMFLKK
Method: Methanobacterium ivanovii strain DSM2611 is cultured as described (Souillard et al., 1988). Wet cells (12 g) are obtained. The latter are resuspended in 0.1 M Tris-HCl buffer pH 7.6 (80 ml) containing 5 mM DTT and 1 mM EDTA, and sonicated for 1 h 30 min at 4° C. and then centrifuged for 1 h at 50,000 g. Free tetrapyrrole compounds are then cleared from the extract by passage through a small DEAE-Sephadex A25 column set up in the same buffer. The proteins precipitating at between 55 and 75% ammonium sulphate saturation are solubilised in a 0.1 M Tris-HCl pH 7.5, 0.5 mM DTT, 1.7 M ammonium sulphate buffer and injected onto a Phenyl-Superose HR 10/10 (Pharmacia France/SA) column eluted with a decreasing gradient (1.7 M to 0 M with respect to ammonium sulphate). The active fractions are passed through a Sephadex G-25 column equilibrated with 0.1 M Tris-HCl pH 7.5, 0.5 mM DTT, 25% glycerol buffer (buffer A), then injected onto a Mono Q HR 5/5 (Pharmacia France SA) column equilibrated with buffer A and eluted with a KCl gradient of 0 to 0.3 M; this step is repeated a second time under the same conditions. Gel permeation chromatography of the active fraction of the preceding step on Bio-Sil TSK-250 (BioRad France SA) enables a protein which is homogeneous in SDS-PAGE and in RP-HPLC (C-18 pBondapak) to be obtained. The different steps of purification, with their yield, as well as their purification factor, are described in the table below.
As shown in this table, the total purification factor is more than 4,500. Some properties of the pure enzyme have been studied according to methods already described (Blanche et al., 1989). This enzyme does indeed have SUMT activity, i.e. it does indeed catalyse the SAM-dependant transfer of two methyl groups at C-2 and at C-7 of uro'gen III.
The Vmax of M. ivanovii SUMT was determined. It is 1537 U/mg of proteins. This value is greater than that found for P. denitrificans SUMT, already determined under optimal conditions for the reaction (taking account of its inhibition by uro'gen III), 489 U/mg of proteins (Blanche et al., 1989).

T3 sequence (P29936 whole entry): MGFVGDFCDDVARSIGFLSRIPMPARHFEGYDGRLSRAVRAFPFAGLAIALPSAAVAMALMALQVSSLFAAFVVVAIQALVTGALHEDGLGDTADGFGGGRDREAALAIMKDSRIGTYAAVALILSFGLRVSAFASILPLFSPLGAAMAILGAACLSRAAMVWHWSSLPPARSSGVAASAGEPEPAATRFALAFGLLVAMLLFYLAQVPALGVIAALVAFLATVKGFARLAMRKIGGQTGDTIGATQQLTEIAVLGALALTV
T2 sequence (P21920 2-261): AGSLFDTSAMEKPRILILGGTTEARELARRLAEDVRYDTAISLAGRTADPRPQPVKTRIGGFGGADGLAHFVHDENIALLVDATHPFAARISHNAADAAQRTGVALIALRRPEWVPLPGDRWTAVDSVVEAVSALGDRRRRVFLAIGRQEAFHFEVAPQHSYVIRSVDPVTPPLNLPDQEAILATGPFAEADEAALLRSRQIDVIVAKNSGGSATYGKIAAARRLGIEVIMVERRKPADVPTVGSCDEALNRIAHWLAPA

Molecule: Cc1ccc2nc[nH]c2c1 [5-methylbenzimidazole]
- reaction rate compared to the natural substrate (5,6-dimethylbenzimidazole) [1]: 92%

Molecule: c1ccc2[nH]cnc2c1 [Benzimidazole]
- reaction rate compared to the natural substrate (5,6-dimethylbenzimidazole) [1]: 157%

Molecule: NC(=O)C1=CN([C@@H]2O[C@H](COP(=O)(O)OP(=O)(O)OC[C@H]3O[C@@H](n4cnc5c(N)ncnc54)[C@H](O)[C@@H]3O)[C@@H](O)[C@H]2O)C=CC1 [NADH]
- cofactor for reduction of precorrin-6x [2]: NADPH cannot be replaced by NADH

Molecule: NC(=O)C1=CN([C@@H]2O[C@H](COP(=O)(O)OP(=O)(O)OC[C@H]3O[C@@H](n4cnc5c(N)ncnc54)[C@H](OP(=O)(O)O)[C@@H]3O)[C@@H](O)[C@H]2O)C=CC1 [NADPH]
- cofactor for reduction of precorrin-6x [2]: strictly NADPH-dependant

Molecule: Cc1cc2ncn([C@H]3O[C@H](COP(=O)(O)O)[C@@H](O)[C@H]3O)c2cc1C [α-ribazole 5′-phosphate]
- Km [3]: ~2.7 µM

Molecule: Cc1cc2ncn([C@H]3O[C@H](CO)[C@@H](O)[C@H]3O)c2cc1C [α-ribazole]
- Km [3]: 7.8 µM

Molecule: GDP-cobinamide [(Ado)GDP-cobinamide]
- Km [3]: 0.9 µM

B1: M. ivanovii SUMT: SAM:uro'gen III methyltransferase purified from Methanobacterium ivanovii, encoded by corA (protein)
chain: MVVYLVGAGPGDPELITLKAVNVLKKADVVLYDKPANEEILKYAEGAKLIYVGKQAGHHYKSQNEINTLLVEEAKENDLVVRLKGGDPFVFGRGGEEILALVEEGIDFELVPGVTSAIGVPTTIGLPVTHRGVATSFTVVTGHEDPTKCKKQVGWDFKADTIVILMGIGNLAENTAEIMKHKDPETPVCVIENGTMEGQRIITGTLENIAGKDIKPPALVVLEMLSMFLKK
- Vmax [4]: 1537 U/mg of proteins
